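Five compound concentrations were applied to cells in 96-well plates for 48 hours; endpoints were derived by simple linear interpolation of the resulting dose-response curve. GI50 is the concentration that inhibits growth by half.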 Activity calls are given as the source filed them. Cut-off read from the data, not from the text of the source: active = GI50 up to about 1.1 µM and inactive = higher.

Test systems include A549; ACHN; BT-549; CCRF-CEM; COLO 205; HCT-116; Hs-578T; K562; MOLT-4; Malme-3M; NCI-H23; NCI/ADR-RES; OVCAR-5; PC-3; SF-539; SN12C; UO-31; IGROV-1; TK-10.
Assay in all cases: NCI-60 cell line screen, 48 h

For `c1ccc2c(c1)ccc1nc(-c3ccc4c(c3)OCO4)c3c(c12)CCCC3`, the GI50 was 20.6 µM (inactive) with A549; 20.8 µM (inactive) in the experiment on ACHN; 17 µM (inactive) in the experiment with BT-549; 25.9 µM (inactive) in the experiment with CCRF-CEM; 20.3 µM (inactive) in the experiment on COLO 205; 15.8 µM (inactive) in the experiment with HCT-116. Also, the GI50 with Hs-578T was 2.39 µM (inactive); in the experiment with K562, 16.3 µM (inactive); in the experiment with MOLT-4, 8.26 µM (inactive); in the experiment with Malme-3M, 20.8 µM (inactive); in the experiment on NCI-H23, 13.8 µM (inactive); in the experiment with NCI/ADR-RES, 17.7 µM (inactive). The GI50 in the experiment on OVCAR-5 was 93.5 µM (inactive); in the experiment with PC-3, 8.75 µM (inactive); with SF-539, 12.5 µM (inactive); in the experiment on SN12C it was 26.1 µM (inactive); in the experiment on UO-31, 20.9 µM (inactive).

Take `O=C(O)c1nc2ccc(C(F)(F)F)cc2nc1Nc1ccc(Cl)c(Cl)c1`: the GI50 is 7.67 µM (inactive) in the experiment with ACHN; 2.62 µM (inactive) in the experiment with BT-549; 11.6 µM (inactive) in the experiment on COLO 205; 5.12 µM (inactive) with HCT-116; 18.4 µM (inactive) with Hs-578T; 12.8 µM (inactive) with IGROV-1. In addition, the GI50 was 3.66 µM (inactive) with K562; 4.37 µM (inactive) with MOLT-4; 13.3 µM (inactive) with Malme-3M; 4.17 µM (inactive) in the experiment with NCI-H23; 5.96 µM (inactive) in the experiment on NCI/ADR-RES; 14.4 µM (inactive) in the experiment on OVCAR-5. Besides, the GI50 with PC-3 was 4.58 µM (inactive); in the experiment on SN12C, 7.67 µM (inactive); with TK-10 it was 20 µM (inactive); with UO-31 it was 4.48 µM (inactive).

As for `O=Cc1ccc(OCc2cccc(COc3ccc(/C=N\Nc4ccc([N+](=O)[O-])cc4[N+](=O)[O-])cc3)n2)cc1`, the GI50 is > 100 µM (inactive) with A549; > 100 µM (inactive) with ACHN; > 100 µM (inactive) with BT-549; 55.1 µM (inactive) in the experiment on CCRF-CEM; > 100 µM (inactive) in the experiment with COLO 205; > 100 µM (inactive) in the experiment on HCT-116. Moreover, the GI50 in the experiment with Hs-578T is > 100 µM (inactive); in the experiment with IGROV-1, > 100 µM (inactive); in the experiment with K562, > 100 µM (inactive); in the experiment on MOLT-4 it was 33.9 µM (inactive); in the experiment on Malme-3M, > 100 µM (inactive); in the experiment on NCI-H23, > 100 µM (inactive). The GI50 in the experiment on NCI/ADR-RES, in the experiment on OVCAR-5, with PC-3, in the experiment on SN12C, with TK-10 and with UO-31 was > 100 µM (inactive) each time.

For `CC12CCCC(C(=O)O)(C1)[C@H](C(C)(C)C(=O)O)CC2` (stereo partly specified), the GI50 with A549, in the experiment with ACHN, in the experiment with BT-549, in the experiment on CCRF-CEM, in the experiment on COLO 205 and with HCT-116 was > 100 µM (inactive) in each case. Also, the GI50 in the experiment with Hs-578T, in the experiment with IGROV-1, in the experiment with K562, with MOLT-4, with Malme-3M and in the experiment with NCI-H23 was > 100 µM (inactive) throughout. Moreover, the GI50 in the experiment on NCI/ADR-RES, with OVCAR-5, in the experiment on PC-3, with SN12C, in the experiment on TK-10 and with UO-31 was > 100 µM (inactive) each time.

Consider `c1cc(CSP234N5CCN2CCN3CCN4CC5)cc(CSP234N5CCN2CCN3CCN4CC5)c1`, for which the GI50 in the experiment with A549 was 40.1 µM (inactive); with ACHN it was 33 µM (inactive); in the experiment with BT-549, 19.2 µM (inactive); with CCRF-CEM, 16.5 µM (inactive); with COLO 205, 23 µM (inactive); in the experiment with HCT-116, > 100 µM (inactive). Further, the GI50 in the experiment on Hs-578T was 21.9 µM (inactive); with IGROV-1, 21.5 µM (inactive); in the experiment with K562, < 0.01 µM (active); with MOLT-4, 15.7 µM (inactive); in the experiment with NCI-H23 it was 41.2 µM (inactive); in the experiment on NCI/ADR-RES, 57.4 µM (inactive). The GI50 with OVCAR-5 was 86.7 µM (inactive); in the experiment on PC-3, 25.3 µM (inactive); with SF-539 it was 22.9 µM (inactive); with SN12C, 58.6 µM (inactive); with TK-10, 26.3 µM (inactive); in the experiment on UO-31 it was 13.9 µM (inactive).

As to `c1ccc(NNC2=NCCN2)cc1`, the GI50 in the experiment on A549, with ACHN, with BT-549, in the experiment on CCRF-CEM, with COLO 205 and in the experiment on HCT-116 was > 100 µM (inactive) in each case. Also, the GI50 in the experiment on Hs-578T, in the experiment on IGROV-1, in the experiment on K562, in the experiment with MOLT-4, with NCI-H23 and in the experiment on NCI/ADR-RES was > 100 µM (inactive) in each case. The GI50 in the experiment with OVCAR-5, with PC-3, with SF-539, with SN12C, in the experiment with TK-10 and in the experiment on UO-31 was > 100 µM (inactive) in each case.

For the compound `Nc1nccc(NCC2(CO)CC(OCc3ccccc3)C2)n1` (stereo unspecified), the GI50 in the experiment on A549 is > 100 µM (inactive); in the experiment on ACHN, > 100 µM (inactive); in the experiment on BT-549 it was > 100 µM (inactive); with CCRF-CEM, > 100 µM (inactive); with COLO 205, 99.1 µM (inactive); in the experiment with HCT-116, 90.4 µM (inactive). For the same compound, the GI50 in the experiment with Hs-578T is > 100 µM (inactive); with IGROV-1 it was > 100 µM (inactive); with K562 it was 79.1 µM (inactive); in the experiment with MOLT-4, > 100 µM (inactive); with Malme-3M, > 100 µM (inactive); with NCI-H23, > 100 µM (inactive). The GI50 in the experiment on NCI/ADR-RES was > 100 µM (inactive); in the experiment with OVCAR-5 it was > 100 µM (inactive); in the experiment with PC-3, > 100 µM (inactive); in the experiment on SF-539, > 100 µM (inactive); in the experiment with SN12C, > 100 µM (inactive); in the experiment with UO-31, 84.5 µM (inactive).

Take `COc1ccc(C2Oc3c(cccc3OC)C=C2[N+](=O)[O-])cc1` (stereo unspecified): the GI50 in the experiment on A549 is 11.9 µM (inactive); in the experiment with ACHN it was 1.74 µM (inactive); in the experiment with BT-549, 1.36 µM (inactive); in the experiment with CCRF-CEM, 0.451 µM (active); in the experiment on COLO 205, 2.51 µM (inactive); in the experiment with HCT-116, 1.28 µM (inactive). Also, the GI50 is 2.58 µM (inactive) with Hs-578T; 3.33 µM (inactive) in the experiment with IGROV-1; 0.668 µM (active) with K562; 1.19 µM (inactive) in the experiment with MOLT-4; 2.54 µM (inactive) with Malme-3M; 3.08 µM (inactive) in the experiment on NCI-H23. Besides, the GI50 in the experiment on NCI/ADR-RES was 2.58 µM (inactive); in the experiment on OVCAR-5 it was 2.26 µM (inactive); in the experiment on PC-3 it was 1.69 µM (inactive); in the experiment on SN12C, 2.02 µM (inactive); in the experiment with TK-10 it was 2.91 µM (inactive); in the experiment with UO-31 it was 1.71 µM (inactive).
